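Following 48 hours of exposure in 96-well plates, responses at five concentrations were used to interpolate endpoints linearly. Abbreviation: GI50, concentration required for 50% inhibition of growth.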 The source made the active and inactive calls. Rule as the data show it: active = GI50 up to about 1.1 µM and inactive = higher.
How the values were obtained:
Assay in all cases: growth of human tumour cells (NCI), 48 h
NCI/ADR-RES = system: NCI/ADR-RES
IGROV-1 = system: IGROV-1
MOLT-4 = system: MOLT-4
HCT-116 = system: HCT-116
MDA-MB-435 = system: MDA-MB-435
MDA-N = system: MDA-N
SF-268 = system: SF-268
A498 = system: A498
RXF 393 = system: RXF 393
UACC-257 = system: UACC-257
T47D = system: T47D
MCF7 = system: MCF7
CAKI-1 = system: CAKI-1
EKVX = system: EKVX
OVCAR-3 = system: OVCAR-3
COLO 205 = system: COLO 205
MDA-MB-231 = system: MDA-MB-231
U-251 = system: U-251
HL-60 = system: HL-60
CCRF-CEM = system: CCRF-CEM
HCT-15 = system: HCT-15
HOP-62 = system: HOP-62
HCC 2998 = system: HCC 2998
DU-145 = system: DU-145
HT-29 = system: HT-29
ACHN = system: ACHN
SW-620 = system: SW-620
NCI-H23 = system: NCI-H23
SK-MEL-5 = system: SK-MEL-5
SNB-75 = system: SNB-75
OVCAR-5 = system: OVCAR-5
UACC-62 = system: UACC-62
RPMI-8226 = system: RPMI-8226
SF-295 = system: SF-295
786-0 = system: 786-0
OVCAR-8 = system: OVCAR-8
NCI-H226 = system: NCI-H226
BT-549 = system: BT-549
SF-539 = system: SF-539
KM12 = system: KM12
SN12C = system: SN12C
A549 = system: A549
K562 = system: K562
SNB-19 = system: SNB-19
SR = system: SR
NCI-H460 = system: NCI-H460
UO-31 = system: UO-31
TK-10 = system: TK-10
SK-OV-3 = system: SK-OV-3
OVCAR-4 = system: OVCAR-4
LOX IMVI = system: LOX IMVI
Malme-3M = system: Malme-3M
SK-MEL-28 = system: SK-MEL-28
M14 = system: M14
HOP-92 = system: HOP-92
PC-3 = system: PC-3
SK-MEL-2 = system: SK-MEL-2
NCI-H522 = system: NCI-H522
Hs-578T = system: Hs-578T

## Cn1ncc2c(NCc3ccccc3)ncnc21
NCI/ADR-RES
  GI50: > 100 µM (inactive)
IGROV-1
  GI50: > 100 µM (inactive)
MOLT-4
  GI50: > 100 µM (inactive)
HCT-116
  GI50: > 100 µM (inactive)
MDA-MB-435
  GI50: > 100 µM (inactive)
MDA-N
  GI50: > 100 µM (inactive)
SF-268
  GI50: > 100 µM (inactive)
A498
  GI50: > 100 µM (inactive)
RXF 393
  GI50: > 100 µM (inactive)
UACC-257
  GI50: > 100 µM (inactive)
T47D
  GI50: > 100 µM (inactive)
MCF7
  GI50: > 100 µM (inactive)
CAKI-1
  GI50: > 100 µM (inactive)
EKVX
  GI50: > 100 µM (inactive)
OVCAR-3
  GI50: > 100 µM (inactive)
COLO 205
  GI50: > 100 µM (inactive)
MDA-MB-231
  GI50: > 100 µM (inactive)
U-251
  GI50: > 100 µM (inactive)
HL-60
  GI50: > 100 µM (inactive)
CCRF-CEM
  GI50: > 100 µM (inactive)
HCT-15
  GI50: > 100 µM
HOP-62
  GI50: > 100 µM (inactive)
HCC 2998
  GI50: > 100 µM (inactive)
DU-145
  GI50: > 100 µM (inactive)
HT-29
  GI50: > 100 µM (inactive)
ACHN
  GI50: > 100 µM (inactive)
SW-620
  GI50: > 100 µM (inactive)
NCI-H23
  GI50: > 100 µM (inactive)
SK-MEL-5
  GI50: > 100 µM (inactive)
SNB-75
  GI50: 50.6 µM (inactive)
OVCAR-5
  GI50: > 100 µM (inactive)
UACC-62
  GI50: > 100 µM (inactive)
RPMI-8226
  GI50: > 100 µM (inactive)
SF-295
  GI50: > 100 µM (inactive)
786-0
  GI50: > 100 µM (inactive)
OVCAR-8
  GI50: > 100 µM (inactive)
NCI-H226
  GI50: > 100 µM (inactive)
BT-549
  GI50: > 100 µM (inactive)
SF-539
  GI50: > 100 µM (inactive)
KM12
  GI50: > 100 µM (inactive)
SN12C
  GI50: > 100 µM (inactive)
A549
  GI50: > 100 µM (inactive)
K562
  GI50: > 100 µM (inactive)
SNB-19
  GI50: > 100 µM (inactive)
SR
  GI50: > 100 µM (inactive)
NCI-H460
  GI50: > 100 µM (inactive)
UO-31
  GI50: > 100 µM (inactive)
TK-10
  GI50: > 100 µM (inactive)
SK-OV-3
  GI50: > 100 µM (inactive)
OVCAR-4
  GI50: > 100 µM (inactive)
LOX IMVI
  GI50: > 100 µM (inactive)
Malme-3M
  GI50: > 100 µM (inactive)
SK-MEL-28
  GI50: > 100 µM (inactive)

## CCC[C@@H](O)C[C@@H]1CCC[C@H](C[C@@H](O)CC)N1C
NCI/ADR-RES
  GI50: > 100 µM (inactive)
IGROV-1
  GI50: > 100 µM (inactive)
MOLT-4
  GI50: > 100 µM (inactive)
HCT-116
  GI50: > 100 µM (inactive)
MDA-MB-435
  GI50: > 100 µM (inactive)
MDA-N
  GI50: > 100 µM (inactive)
SF-268
  GI50: 17.9 µM (inactive)
A498
  GI50: > 100 µM (inactive)
UACC-257
  GI50: > 100 µM (inactive)
T47D
  GI50: > 100 µM (inactive)
MCF7
  GI50: > 100 µM (inactive)
CAKI-1
  GI50: > 100 µM (inactive)
EKVX
  GI50: 29.7 µM (inactive)
OVCAR-3
  GI50: > 100 µM (inactive)
M14
  GI50: > 100 µM (inactive)
COLO 205
  GI50: > 100 µM (inactive)
MDA-MB-231
  GI50: > 100 µM (inactive)
HOP-92
  GI50: < 0.01 µM (active)
U-251
  GI50: > 100 µM (inactive)
HL-60
  GI50: > 100 µM (inactive)
PC-3
  GI50: > 100 µM (inactive)
CCRF-CEM
  GI50: > 100 µM (inactive)
HCT-15
  GI50: > 100 µM
HOP-62
  GI50: > 100 µM (inactive)
HCC 2998
  GI50: > 100 µM (inactive)
DU-145
  GI50: > 100 µM (inactive)
HT-29
  GI50: > 100 µM (inactive)
ACHN
  GI50: > 100 µM (inactive)
SW-620
  GI50: > 100 µM (inactive)
NCI-H23
  GI50: > 100 µM (inactive)
SK-MEL-5
  GI50: > 100 µM (inactive)
OVCAR-5
  GI50: > 100 µM (inactive)
UACC-62
  GI50: > 100 µM (inactive)
RPMI-8226
  GI50: > 100 µM (inactive)
SF-295
  GI50: > 100 µM (inactive)
786-0
  GI50: > 100 µM (inactive)
OVCAR-8
  GI50: > 100 µM (inactive)
NCI-H226
  GI50: > 100 µM (inactive)
SK-MEL-2
  GI50: > 100 µM (inactive)
BT-549
  GI50: 76.4 µM (inactive)
SF-539
  GI50: > 100 µM (inactive)
KM12
  GI50: > 100 µM (inactive)
SN12C
  GI50: > 100 µM (inactive)
NCI-H522
  GI50: 11.7 µM (inactive)
A549
  GI50: > 100 µM (inactive)
K562
  GI50: > 100 µM (inactive)
SNB-19
  GI50: > 100 µM (inactive)
SR
  GI50: > 100 µM (inactive)
UO-31
  GI50: > 100 µM (inactive)
TK-10
  GI50: > 100 µM (inactive)
SK-OV-3
  GI50: > 100 µM (inactive)
OVCAR-4
  GI50: > 100 µM (inactive)
LOX IMVI
  GI50: 88.1 µM (inactive)
SK-MEL-28
  GI50: > 100 µM (inactive)

## CCOC(=O)CCC(NC(=O)c1ccc(CNc2nc3cc(N)cc(N)c3nc2-c2ccccc2)cc1)C(=O)OCC (stereo not drawn)
NCI/ADR-RES
  GI50: > 100 µM (inactive)
IGROV-1
  GI50: > 87.1 µM (inactive)
MOLT-4
  GI50: 1.45 µM (inactive)
HCT-116
  GI50: > 95.9 µM (inactive)
MDA-MB-435
  GI50: 43.1 µM (inactive)
SF-268
  GI50: > 100 µM (inactive)
A498
  GI50: > 100 µM (inactive)
RXF 393
  GI50: > 58.9 µM (inactive)
UACC-257
  GI50: 19 µM (inactive)
T47D
  GI50: 20.7 µM (inactive)
MCF7
  GI50: > 87.3 µM (inactive)
CAKI-1
  GI50: > 100 µM (inactive)
EKVX
  GI50: > 100 µM (inactive)
OVCAR-3
  GI50: 27 µM (inactive)
M14
  GI50: 28.4 µM (inactive)
COLO 205
  GI50: 27.5 µM (inactive)
MDA-MB-231
  GI50: 22.3 µM (inactive)
HOP-92
  GI50: 39.9 µM (inactive)
U-251
  GI50: > 100 µM (inactive)
HL-60
  GI50: 10.7 µM (inactive)
PC-3
  GI50: > 100 µM (inactive)
HCT-15
  GI50: > 69.5 µM
Hs-578T
  GI50: > 84.5 µM (inactive)
HOP-62
  GI50: > 100 µM (inactive)
HCC 2998
  GI50: > 100 µM (inactive)
DU-145
  GI50: > 89.3 µM (inactive)
HT-29
  GI50: > 100 µM (inactive)
ACHN
  GI50: > 100 µM (inactive)
SW-620
  GI50: > 100 µM (inactive)
NCI-H23
  GI50: > 67.6 µM (inactive)
SK-MEL-5
  GI50: > 83 µM (inactive)
SNB-75
  GI50: > 100 µM (inactive)
OVCAR-5
  GI50: > 100 µM (inactive)
UACC-62
  GI50: > 86.3 µM (inactive)
SF-295
  GI50: > 100 µM (inactive)
786-0
  GI50: > 100 µM (inactive)
OVCAR-8
  GI50: > 100 µM (inactive)
NCI-H226
  GI50: > 100 µM (inactive)
SK-MEL-2
  GI50: 28.8 µM (inactive)
BT-549
  GI50: > 100 µM (inactive)
SF-539
  GI50: > 100 µM (inactive)
KM12
  GI50: > 85.7 µM (inactive)
SN12C
  GI50: > 61.5 µM (inactive)
NCI-H522
  GI50: 28.4 µM (inactive)
A549
  GI50: > 100 µM (inactive)
K562
  GI50: 15.3 µM (inactive)
SNB-19
  GI50: > 100 µM (inactive)
SR
  GI50: 3.64 µM (inactive)
NCI-H460
  GI50: 34 µM (inactive)
UO-31
  GI50: > 100 µM (inactive)
TK-10
  GI50: > 100 µM (inactive)
SK-OV-3
  GI50: > 100 µM (inactive)
OVCAR-4
  GI50: 17.4 µM (inactive)
LOX IMVI
  GI50: 99.3 µM (inactive)
Malme-3M
  GI50: 18.3 µM (inactive)
SK-MEL-28
  GI50: 28.2 µM (inactive)
